The values below come from ChEMBL document CHEMBL5212743, “Selectivity Literature for EUbOPEN Chemogenomics Library wave 3” (2023).

In assay [1] the target is Dual specificity tyrosine-phosphorylation-regulated kinase 1B (Homo sapiens, UniProt Q9Y463). The experiment in a line: Selectivity interaction (KinomeScan (DiscoverX)) EUB0000733a DYRK1B. Conditions: at 1 µM.
The target in assay [2] is Protein arginine N-methyltransferase 7 (Homo sapiens) (UniProt Q9NVM4). The experiment in a line: Selectivity interaction (Methyltransferase panel) EUB0000226b PRMT7. Conditions: at 10 µM.
Assay [3] deals with Calcium/calmodulin-dependent protein kinase kinase 1 (Homo sapiens) (UniProt Q8N5S9). Briefly: Selectivity interaction (KinomeScan (DiscoverX)) EUB0000167b CAMKK1. Conditions: at 1 µM.
The target in assay [4] is Epidermal growth factor receptor (Homo sapiens, UniProt P00533). Briefly: Selectivity interaction (KinomeScan (DiscoverX)) EUB0000722a EGFR. Conditions: at 1 µM.
Assay [5] concerns the target Ribosomal protein S6 kinase alpha-5 (Homo sapiens) (UniProt O75582). The experiment in a line: Selectivity interaction (KinomeScan (DiscoverX)) EUB0000722a RPS6KA5. Conditions: at 1 µM.
Assay [6] addresses Tyrosine-protein kinase ABL1 (Homo sapiens, UniProt P00519). The experiment in a line: Selectivity interaction (KinomeScan (DiscoverX)) EUB0000744a ABL1. Conditions: at 100 nM.
In assay [7] the target is Phosphatidylinositol 4,5-bisphosphate 3-kinase catalytic subunit alpha isoform (Homo sapiens, UniProt P42336). Briefly: Selectivity interaction (KinomeScan (DiscoverX)) EUB0000744a PIK3CA. Conditions: at 100 nM.
In assay [8] the target is Cyclin-dependent kinase 8 (Homo sapiens) (UniProt P49336). Briefly: Selectivity interaction (KinomeScan (DiscoverX)) EUB0000239b CDK8. Conditions: at 1 µM.
The target of assay [9] is Sodium/nucleoside cotransporter 2 (Homo sapiens) (UniProt O43868). The experiment in a line: Selectivity interaction (Enzyme panel (receptors, ion channels, enzymes, and transporters)) EUB0000239b SLC28A2. Conditions: at 10 µM.
For assay [10], the target named is Serine/threonine-protein kinase Nek3 (Homo sapiens) (UniProt P51956). Briefly: Selectivity interaction (KinomeScan (DiscoverX)) EUB0000239b NEK3. Conditions: at 1 µM.
The target in assay [11] is Microtubule-associated serine/threonine-protein kinase 1 (Homo sapiens) (UniProt Q9Y2H9). The experiment in a line: Selectivity interaction (KinomeScan (DiscoverX)) EUB0000239b MAST1. Conditions: at 1 µM.
Assay [12] concerns the target Cathepsin G (Homo sapiens) (UniProt P08311). The experiment in a line: Selectivity interaction (Protease panel (enzymatic assay)) EUB0000239b CTSG. Conditions: at 10 µM.
The subject of assay [13] is T1, Receptor-type tyrosine-protein kinase FLT3 (Homo sapiens), P36888 [N841I].
T1 sequence (whole entry): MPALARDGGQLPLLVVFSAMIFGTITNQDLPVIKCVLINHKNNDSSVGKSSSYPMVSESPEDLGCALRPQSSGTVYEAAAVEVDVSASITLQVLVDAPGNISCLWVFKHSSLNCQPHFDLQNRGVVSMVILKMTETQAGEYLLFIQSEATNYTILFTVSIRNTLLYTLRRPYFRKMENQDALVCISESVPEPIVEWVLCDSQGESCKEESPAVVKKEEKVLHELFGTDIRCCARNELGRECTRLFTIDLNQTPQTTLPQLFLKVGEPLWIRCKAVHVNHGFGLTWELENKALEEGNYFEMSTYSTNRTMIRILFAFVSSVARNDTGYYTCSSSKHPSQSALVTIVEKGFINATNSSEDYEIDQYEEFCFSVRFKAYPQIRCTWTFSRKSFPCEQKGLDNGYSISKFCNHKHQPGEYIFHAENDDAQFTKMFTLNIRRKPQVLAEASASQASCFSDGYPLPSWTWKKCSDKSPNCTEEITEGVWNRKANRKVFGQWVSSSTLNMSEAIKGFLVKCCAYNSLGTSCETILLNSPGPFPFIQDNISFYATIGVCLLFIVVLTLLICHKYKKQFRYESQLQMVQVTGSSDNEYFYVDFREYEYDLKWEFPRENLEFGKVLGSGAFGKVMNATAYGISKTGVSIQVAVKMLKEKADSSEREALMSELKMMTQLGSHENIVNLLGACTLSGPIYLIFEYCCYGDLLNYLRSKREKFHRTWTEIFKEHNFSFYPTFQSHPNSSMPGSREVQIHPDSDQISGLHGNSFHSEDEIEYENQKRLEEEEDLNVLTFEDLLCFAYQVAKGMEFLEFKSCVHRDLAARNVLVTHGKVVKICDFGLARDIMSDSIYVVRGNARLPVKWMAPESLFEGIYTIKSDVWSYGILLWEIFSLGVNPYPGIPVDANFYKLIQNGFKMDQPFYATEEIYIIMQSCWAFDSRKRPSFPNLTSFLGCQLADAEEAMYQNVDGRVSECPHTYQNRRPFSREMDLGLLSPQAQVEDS
Briefly: Selectivity interaction (KinomeScan (DiscoverX)) EUB0000239b FLT3. Conditions: at 1 µM.

Assay [14] has as its system Phosphatidylinositol 4,5-bisphosphate 3-kinase catalytic subunit alpha isoform (Homo sapiens), P42336 [E545K]. Briefly: Selectivity interaction (KinomeScan (DiscoverX)) EUB0000239b PIK3CA. Conditions: at 1 µM.
Assay [15] deals with Homeodomain-interacting protein kinase 1 (Homo sapiens, UniProt Q86Z02). The experiment in a line: Selectivity interaction (KinomeScan (DiscoverX)) EUB0000239b HIPK1. Conditions: at 1 µM.
For assay [16], the target named is Sigma intracellular receptor 2 (Homo sapiens, UniProt Q5BJF2). Briefly: Selectivity interaction (GPCR panel (PDSP screen)) EUB0000239b TMEM97. Conditions: at 10 µM.

Microtubule-associated serine/threonine-protein kinase 1 (Homo sapiens), sequence (Q9Y2H9 whole entry, looked up): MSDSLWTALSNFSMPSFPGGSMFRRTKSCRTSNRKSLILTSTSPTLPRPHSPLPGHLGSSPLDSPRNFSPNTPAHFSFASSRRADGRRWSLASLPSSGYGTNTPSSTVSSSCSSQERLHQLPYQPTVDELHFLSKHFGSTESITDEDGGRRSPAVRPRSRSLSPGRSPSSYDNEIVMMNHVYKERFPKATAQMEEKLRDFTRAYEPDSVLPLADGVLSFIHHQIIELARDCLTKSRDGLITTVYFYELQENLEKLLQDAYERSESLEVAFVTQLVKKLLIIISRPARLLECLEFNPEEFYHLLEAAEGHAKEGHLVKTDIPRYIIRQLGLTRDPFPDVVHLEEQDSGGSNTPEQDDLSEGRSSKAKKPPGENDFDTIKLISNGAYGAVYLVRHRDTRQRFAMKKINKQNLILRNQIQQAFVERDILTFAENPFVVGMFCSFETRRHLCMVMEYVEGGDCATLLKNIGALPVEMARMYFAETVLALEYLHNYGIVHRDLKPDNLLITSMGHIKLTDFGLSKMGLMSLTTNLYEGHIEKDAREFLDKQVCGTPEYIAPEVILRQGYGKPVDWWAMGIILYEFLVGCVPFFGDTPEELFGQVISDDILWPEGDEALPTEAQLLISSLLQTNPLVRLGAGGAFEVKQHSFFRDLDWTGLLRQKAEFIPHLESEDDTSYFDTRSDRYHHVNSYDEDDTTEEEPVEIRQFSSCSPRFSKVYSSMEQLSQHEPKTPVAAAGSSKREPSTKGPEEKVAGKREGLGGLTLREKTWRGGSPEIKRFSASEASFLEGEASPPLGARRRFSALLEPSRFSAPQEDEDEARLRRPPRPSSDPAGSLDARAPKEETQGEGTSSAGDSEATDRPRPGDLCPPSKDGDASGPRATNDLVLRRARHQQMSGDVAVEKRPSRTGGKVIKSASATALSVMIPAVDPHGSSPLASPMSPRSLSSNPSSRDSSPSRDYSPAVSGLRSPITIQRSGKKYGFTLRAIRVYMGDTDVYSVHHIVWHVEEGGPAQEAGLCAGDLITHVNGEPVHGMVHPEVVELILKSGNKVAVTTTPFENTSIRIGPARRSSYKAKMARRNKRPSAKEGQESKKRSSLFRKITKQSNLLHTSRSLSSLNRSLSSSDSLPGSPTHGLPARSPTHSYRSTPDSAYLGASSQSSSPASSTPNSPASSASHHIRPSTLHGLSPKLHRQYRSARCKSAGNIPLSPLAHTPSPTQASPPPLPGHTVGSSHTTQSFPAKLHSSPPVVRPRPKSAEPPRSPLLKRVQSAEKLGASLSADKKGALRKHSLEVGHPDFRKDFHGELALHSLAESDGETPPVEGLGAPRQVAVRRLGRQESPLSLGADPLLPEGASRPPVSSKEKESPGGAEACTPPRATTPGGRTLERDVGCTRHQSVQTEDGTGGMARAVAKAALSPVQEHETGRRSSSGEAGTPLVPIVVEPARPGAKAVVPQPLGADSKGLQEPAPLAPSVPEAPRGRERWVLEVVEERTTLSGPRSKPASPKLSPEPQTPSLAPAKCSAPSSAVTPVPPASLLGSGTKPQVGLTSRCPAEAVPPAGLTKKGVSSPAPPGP
Phosphatidylinositol 4,5-bisphosphate 3-kinase catalytic subunit alpha isoform (Homo sapiens), P42336 [E545K], sequence (P42336 whole entry E545K, canonical isoform): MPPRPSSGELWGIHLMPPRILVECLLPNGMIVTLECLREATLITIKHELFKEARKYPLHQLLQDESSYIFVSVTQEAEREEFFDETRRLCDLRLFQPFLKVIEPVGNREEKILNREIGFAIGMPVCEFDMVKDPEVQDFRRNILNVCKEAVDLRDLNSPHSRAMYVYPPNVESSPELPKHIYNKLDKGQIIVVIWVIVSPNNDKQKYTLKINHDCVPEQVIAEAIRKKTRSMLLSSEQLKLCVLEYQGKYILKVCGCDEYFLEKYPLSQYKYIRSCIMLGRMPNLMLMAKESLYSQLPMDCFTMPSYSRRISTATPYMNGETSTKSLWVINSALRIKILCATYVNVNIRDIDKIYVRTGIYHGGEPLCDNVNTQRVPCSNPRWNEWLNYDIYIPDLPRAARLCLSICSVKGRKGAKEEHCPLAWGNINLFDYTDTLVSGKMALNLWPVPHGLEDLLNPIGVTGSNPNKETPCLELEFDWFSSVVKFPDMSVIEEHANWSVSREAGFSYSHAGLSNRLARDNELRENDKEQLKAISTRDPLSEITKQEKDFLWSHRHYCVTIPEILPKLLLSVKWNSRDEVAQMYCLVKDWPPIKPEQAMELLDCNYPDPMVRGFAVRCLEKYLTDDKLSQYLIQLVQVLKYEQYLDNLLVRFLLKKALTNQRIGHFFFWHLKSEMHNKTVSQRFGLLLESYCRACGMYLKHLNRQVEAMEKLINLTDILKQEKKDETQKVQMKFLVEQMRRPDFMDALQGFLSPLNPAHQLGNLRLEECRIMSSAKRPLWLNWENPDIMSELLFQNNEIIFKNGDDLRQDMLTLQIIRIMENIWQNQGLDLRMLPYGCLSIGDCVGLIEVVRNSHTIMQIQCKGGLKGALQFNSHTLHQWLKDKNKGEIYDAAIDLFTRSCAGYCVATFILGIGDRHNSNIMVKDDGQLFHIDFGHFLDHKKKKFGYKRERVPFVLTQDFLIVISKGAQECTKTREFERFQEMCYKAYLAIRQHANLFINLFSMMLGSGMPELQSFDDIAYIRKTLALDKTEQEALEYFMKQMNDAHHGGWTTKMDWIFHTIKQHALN
Ribosomal protein S6 kinase alpha-5 (Homo sapiens), sequence (O75582 whole entry, looked up): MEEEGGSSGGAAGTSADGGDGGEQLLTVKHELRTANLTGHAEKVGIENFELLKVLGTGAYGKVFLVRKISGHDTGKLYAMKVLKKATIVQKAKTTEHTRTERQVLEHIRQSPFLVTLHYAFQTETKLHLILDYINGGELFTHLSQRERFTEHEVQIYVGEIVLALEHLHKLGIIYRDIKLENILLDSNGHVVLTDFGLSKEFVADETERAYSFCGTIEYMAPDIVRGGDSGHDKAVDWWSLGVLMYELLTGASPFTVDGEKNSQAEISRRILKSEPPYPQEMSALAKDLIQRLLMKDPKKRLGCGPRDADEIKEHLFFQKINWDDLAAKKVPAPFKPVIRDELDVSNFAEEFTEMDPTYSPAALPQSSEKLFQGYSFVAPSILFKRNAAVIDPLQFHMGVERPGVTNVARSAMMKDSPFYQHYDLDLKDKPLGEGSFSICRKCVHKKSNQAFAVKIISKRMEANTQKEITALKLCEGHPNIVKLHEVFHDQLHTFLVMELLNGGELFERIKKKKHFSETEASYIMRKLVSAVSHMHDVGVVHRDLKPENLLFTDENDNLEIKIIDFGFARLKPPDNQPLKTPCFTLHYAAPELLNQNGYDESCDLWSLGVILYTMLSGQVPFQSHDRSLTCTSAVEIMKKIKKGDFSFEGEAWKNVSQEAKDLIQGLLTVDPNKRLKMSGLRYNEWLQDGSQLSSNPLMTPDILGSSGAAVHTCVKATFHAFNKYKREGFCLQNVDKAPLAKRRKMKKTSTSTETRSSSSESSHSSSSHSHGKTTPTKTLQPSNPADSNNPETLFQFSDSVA
Cathepsin G (Homo sapiens), sequence (P08311 whole entry): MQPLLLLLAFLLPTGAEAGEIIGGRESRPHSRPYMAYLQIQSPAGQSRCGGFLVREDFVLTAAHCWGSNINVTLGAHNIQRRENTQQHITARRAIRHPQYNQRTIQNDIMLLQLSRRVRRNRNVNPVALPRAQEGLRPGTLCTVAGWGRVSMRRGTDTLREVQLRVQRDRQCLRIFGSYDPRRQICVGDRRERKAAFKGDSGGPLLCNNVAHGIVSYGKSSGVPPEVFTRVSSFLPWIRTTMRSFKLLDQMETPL
Protein arginine N-methyltransferase 7 (Homo sapiens), sequence (Q9NVM4 whole entry): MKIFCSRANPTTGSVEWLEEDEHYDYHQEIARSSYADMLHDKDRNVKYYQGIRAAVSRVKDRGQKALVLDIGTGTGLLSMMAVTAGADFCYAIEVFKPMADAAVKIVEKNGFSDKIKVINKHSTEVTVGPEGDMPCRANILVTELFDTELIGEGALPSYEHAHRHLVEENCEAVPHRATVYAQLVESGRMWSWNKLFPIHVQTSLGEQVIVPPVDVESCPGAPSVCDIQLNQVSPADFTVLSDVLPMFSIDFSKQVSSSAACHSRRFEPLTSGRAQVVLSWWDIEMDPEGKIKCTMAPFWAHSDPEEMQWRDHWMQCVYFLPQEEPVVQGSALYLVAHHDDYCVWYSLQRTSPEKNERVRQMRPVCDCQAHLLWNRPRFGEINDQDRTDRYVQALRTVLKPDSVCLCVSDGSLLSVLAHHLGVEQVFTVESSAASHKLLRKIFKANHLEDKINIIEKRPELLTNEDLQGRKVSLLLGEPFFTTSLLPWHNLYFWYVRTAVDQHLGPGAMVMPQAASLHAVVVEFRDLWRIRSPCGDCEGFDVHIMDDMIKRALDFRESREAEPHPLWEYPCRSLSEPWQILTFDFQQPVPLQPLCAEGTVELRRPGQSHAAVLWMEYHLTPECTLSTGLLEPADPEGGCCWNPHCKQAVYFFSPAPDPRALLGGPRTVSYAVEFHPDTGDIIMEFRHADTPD
Sodium/nucleoside cotransporter 2 (Homo sapiens), sequence (O43868 whole entry): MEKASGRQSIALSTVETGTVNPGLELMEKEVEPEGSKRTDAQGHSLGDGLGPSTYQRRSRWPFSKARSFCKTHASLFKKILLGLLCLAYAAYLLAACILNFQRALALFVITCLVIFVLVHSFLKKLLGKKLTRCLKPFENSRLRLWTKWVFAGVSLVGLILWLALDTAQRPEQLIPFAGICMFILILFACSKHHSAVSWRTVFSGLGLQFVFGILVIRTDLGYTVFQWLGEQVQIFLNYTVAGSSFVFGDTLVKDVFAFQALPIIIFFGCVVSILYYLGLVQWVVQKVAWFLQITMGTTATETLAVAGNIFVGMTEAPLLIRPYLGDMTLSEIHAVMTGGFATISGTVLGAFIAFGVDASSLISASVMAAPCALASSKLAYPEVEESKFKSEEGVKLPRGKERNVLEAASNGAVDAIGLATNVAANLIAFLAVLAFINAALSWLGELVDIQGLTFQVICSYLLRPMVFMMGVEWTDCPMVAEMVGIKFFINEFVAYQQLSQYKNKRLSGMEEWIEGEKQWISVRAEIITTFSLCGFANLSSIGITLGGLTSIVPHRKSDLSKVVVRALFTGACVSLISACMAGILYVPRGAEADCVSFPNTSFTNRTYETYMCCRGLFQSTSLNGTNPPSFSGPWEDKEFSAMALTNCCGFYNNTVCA
Phosphatidylinositol 4,5-bisphosphate 3-kinase catalytic subunit alpha isoform, sequence (P42336 whole entry, canonical isoform): as the sequence (P42336 whole entry E545K, canonical isoform) above, with K545E counted along it

The compound `FC(F)(F)c1ccc2c(c1)nc(-c1cccnc1)n2C1CC1` registered a % of control in [1] of 53%.

Turning to `Nc1ncnc2c1ccn2[C@@H]1O[C@H]([C@H](O)c2ccccc2)[C@@H](O)[C@H]1O`, the % activity remaining in assay [2] is 75%.

`Cc1cccc(-c2cnc3occ(-c4ccc(C(=O)O)c(C5CCCC5)c4)c3c2)c1`: the % of control in assay [3] worked out at 12%.

For the compound `CCN(Cc1ccc(Cl)cc1)c1ncc(C(=O)NCCCN2CCCC2=O)c(NC2CCCC2)n1`, the % of control stood at 27% in assay [4] and 35% in [5].

With `CC(C)CC(=O)N1CCc2nc(-c3ccc(Br)cc3)nc(N(C)Cc3ccccc3)c2C1`, the % of control in [6] and in assay [7] was 53% each time.

Take `CO[C@@H](C)c1c(Nc2ccc([C@H](N(C)C(=O)C3CCS(=O)(=O)CC3)C(F)(F)F)cc2)cnc2cc(Cl)nn12`: the % of control stood at 39% in [8]; 40% in assay [10]; 43% in assay [11]; 23% in assay [13]; 48% in assay [14]; 40% in assay [15]. The % of inhibition in assay [9] worked out at 52%; in assay [12], 7%; in [16], 49.9%.
